The results in this text go back to patent publication US11028073B2, “Butylphthalide-telmisartan hybrids, preparation method and application thereof” (GUANGDONG LONGFU MEDICINE CO., LTD., priority 2017, dated 2021).

The test system of one data set is AMPK. The data set is described as follows: Western blot of phosphorylated AMPK (p-AMPK) in cerebral cortex at the infarct side of tMCAO rats. The data set is classed as in vivo, rat. The settings on record: Compound C 20 mg/kg i.p. 30 min before I3. The procedure: (§1) The experimental method was manipulated as described in 2. At 30 min before the administration of I3, rats were intraperitoneally injected with 20 mg/kg of AMPK inhibitor Compound C, and the volume of the ipsilateral hemisphere infarct and the neurobehavioral score were determined at 48 h post-ischemia. Western blot analysis was performed on ischemic brain tissue to determine the content of phosphorylated AMPK (p-AMPK) in the cerebral cortex at the infarct side.
(In western blotting, separated proteins are transferred to a membrane and probed.)

Data set [1] relates to rats with permanent middle cerebral artery occlusion. The data set is described as follows: Neurobehavioral score in pMCAO rats. The data set is classed as in vivo, rat. To be noted: for Neurobehavioral score: 72 h after ischemia. On the procedure: (§2) Experimental method: Surgical method was described as the operation method for the above tMCAO. The thread embolism remained in the brain of rats without pulling out, and rotarod performance was tested every day. Brains were taken out at 72 h after ischemia for the determination of infarct volume and neurobehavioral score. The process of the rotarod performance test was as follows: rats were placed on a rotating rod of which the speed was accelerated from 4 rpm up to the maximum speed of 40 rpm within 5 minutes. Rats were trained for 3 to 7 days before model establishment, the rotarod performance was tested at 1, 2 and 3 days after pMCAO, respectively, and the falling time of rats were recorded.
(§3) In FIG. 3, pMCAO model is established on male rats of 260 to 280 g (thread embolism is not pulled out, resulting in permanent ischemia), the administration method is the same as that in FIG. 2, and the infract volume, neurobehavioral scores and rotarod test were determined at 72 h after ischemia, as described above.

For data set [2], the system named is rats with tMCAO. The data set is described as follows: Neurobehavioral function score in tMCAO rats. The data set is classed as in vivo, rat. On the procedure: (§4) Experimental method: 75 SD male rats weighing 300±20 g were raised under the condition of 25° C. and relative humidity of 60% to 75% for 1 week for experiment. Rats were randomized into 5 groups: sham group, vehicle group, drug administration group at 24 h after ischemia, drug administration group at 6 h after ischemia, drug administration group at 4 h after ischemia, respectively, with 15 animals in each group.
(§5) Establishment of transient middle cerebral artery occlusion (tMCAO) rat model: The rats were anesthetized by intraperitoneal injection of chloral hydrate, and lying on an operating table with limbs fixed with string. […] ECA was ligated and cut off, ICA was clamped at the distal end with an arterial clip, and then a small opening was cut at the intersection of ECA and ICA near the ECA. A nylon thread with paraffin coated on one end was inserted from the small cut opening into the internal carotid artery at the intersection of the internal and external carotid arteries and further into the anterior cerebral artery at the proximal end, to block the blood supply to the middle cerebral artery on this side. At 120 minutes after ischemia, the nylon thread was withdrawn at the incision of the external carotid artery to achieve the reperfusion of the middle cerebral artery. The room temperature during surgery was controlled at 25 to 27° C.
(§6) Administration method: administrating after surgery with a concentration of 1 mg/kg. Drug administration group at 4 h after ischemia was administrated at 4 h after ischemia, and once again after 24 h. Drug administration group at 6 h after ischemia was administrated at 6 h after ischemia, and once again after 24 h. Drug administration group at 24 h after ischemia was administrated once at 24 h after ischemia.
(§7) After the time window for administration of 13 was determined, administration at 4 hour post-ischemia was selected as the subsequent testing time point. 95 SD male rats were randomized into 7 groups: sham group, vehicle group, NBP group, Telm group, NBP+Telm group, 13 group and edaravone group, respectively. The surgical procedure was as described above, NBP (1 mg/kg), Telm (1 mg/kg), NBP (1 mg/kg)+Telm (1 mg/kg), 13 (1 mg/kg) and edaravone (3 mg/kg) were administrated at 4 hour post-ischemia, and once again at 24 h, respectively. The infarct volume and neurobehavioral score were determined at 48 h post-ischemia.
The neurobehavioral function score of tMCAO rats were scored at 48 h after ischemia. Criteria for scoring is as follows: 0 point, no symptoms of nerve damage; 1 point, inability of fully extending forepaw at the healthy side; 2 points, circling to the healthy side; 3 points, tilting toward the healthy side; 4 points, inability of spontaneous walking and losing consciousness.
as §1
(§8) In FIG. 2, tMCAO models are established in male rats of 260 to 280 g (thread embolism is pulled out from the rats after 2 hour ischemia, resulting in reperfusion), 13 compound (1 mg/kg) is intravenously injected at 4 h post-ischemia, and intravenously injected again at 24 h post-ischemia. […]

Data set [3] has as its system rats with permanent middle cerebral artery occlusion. The data set is described as follows: Rotarod performance test in pMCAO rats. The data set is classed as in vivo, rat. The settings on record: in s (unit assumed). The procedure:
as §2, §3
Background: The rotarod test checks motor coordination on a turning rod.

For data set [4], the system named is rats with tMCAO. Put plainly: Infarct volume (TTC staining) in rats with transient middle cerebral artery occlusion (tMCAO). The data set is classed as in vivo, rat. On the procedure:
as §4, §5, §6, §7
At 48 h post-ischemia, the rats were anesthetized with pentobarbital sodium, decapitated to get brain quickly, olfactory bulb, cerebellum and lower brain stem were removed, and coronal was cut into 6 slices. Then the brain slices were placed in the solution containing 4% TTC and 1 mol/L of K2HPO4, incubated at 37° C. for 30 min in the dark, during which the brain slices were flipped every 7 to 8 min. […] Images were taken after staining, and the infarct volume was calculated using an image analysis software. The percentage of infarct volume is calculated by the following formula: infarct area/total brain cross-sectional area×100%.
as §1, §8

Data set [5] has as its system rats with permanent middle cerebral artery occlusion. The data set is described as follows: Infarct volume in rats with permanent middle cerebral artery occlusion (pMCAO). The settings on record: for Infarction rate (%): 72 h after ischemia. The format is in vivo, rat. On the procedure: as §2, §3
A further data set has as its system Nrf2. The data set is described as follows: Neh2-Luciferase reporter assay for Nrf2 activation in BV2 cells. The format is cell-based. To be noted: 24 h incubation, BV2 cells. On the procedure: BV2 cells were transfected with Neh2-Luciferase reporter gene plasmid for 6 h, replaced a normal serum-containing medium and cultured for 24 h, then incubated with drug for 24 h, and treated with Reporter Lysis Buffer for 20 min. The Reporter Lysis Buffer was added to a 96-well plate, and the activity of luciferase was measured.
(§9) In FIGS. 1A and 1B, mouse primary microglia are pre-incubated with 1 μM or 5 μM of test compounds for 3 hours, then stimulated with LPS for 5 hours, and the protein content of pro-inflammatory factor TNF-α is determined by ELISA method. In FIG. 1C, the activations of the compounds on Nrf2 are tested by Luciferase Reporter Assay.
On the technique in general: A reporter such as luciferase makes a cellular process visible.

Another data set deals with TNF-α. The data set is described as follows: LPS-induced TNF-α release in mouse primary microglia (ELISA). The format is cell-based. To be noted: 1 μM or 5 μM drug pre-administrated 3 h, then 100 ng/mL LPS 5 h; supernatant ELISA. The procedure:
The primary microglia were extracted from the brain of mouse and cultured, were pre-administrated with 1 μM or 5 μM drugs for 3 h, and then stimulated with 100 ng/mL lipopolysaccharide (LPS) for 5 h. The supernatant of cell culture was extracted, and the expression level of TNF-α in the supernatant was determined by ELISA method.
as §9

Setting [6] is: tMCAO rats, comparison groups, administrated at 4 h post-ischemia and again at 24 h, 1 mg/kg (edaravone 3 mg/kg), scored 48 h.
Where [7] appears, read: administrated at 4 h post-ischemia and again at 24 h, 1 mg/kg (edaravone 3 mg/kg), determined 48 h post-ischemia.

One may read the melting point as the temperature of the solid-liquid transition.

In the case of `c1cc(-c2cnn3cc(-c4ccc(OCCN5CCCCC5)cc4)cnc23)ccn1` [Compound C, reference compound], the “AMPK activity (p-AMPK content in cerebral cortex at the infarct side)” value in the data set with AMPK is listed as “inhibit the increase of AMPK activity induced by I3”.

Consider `CC1=NN(c2ccccc2)C(=O)C1` [Edaravone, reference compound], for which the Neurobehavioral score in data set [1] is on record as 1.7; in the data set on rats with tMCAO [2] (setting [6]), 1.556. Besides, the Falling time in data set [3] (Before modeling (baseline)) is recorded as 292.17; in data set [3] (Day 1 after pMCAO) it was 56.33; in [3] (Day 2 after pMCAO) it was 64.00; in data set [3] (Day 3 after pMCAO), 74.00. Also, the “Infarction rate (%)” value with rats with tMCAO [4] (setting [7]) is 6.183%; in data set [5], 16.7%.

`CCCCC(OC(C)=O)c1ccccc1C(=O)NCCCCCCCCNC(=O)c1ccccc1-c1ccc(Cn2c(CCC)nc3c(C)cc(-c4nc5ccccc5n4C)cc32)cc1` (centres unmarked) [I3, 8-N-{2-[(1-acetoxyl)n-pentyl]benzoyl}octanediamine telmisartan amide]: the melting point fell in the range of 94 to 95 °C. The compound also displayed a Neurobehavioral score in data set [1] of 1.6. Moreover, the neurobehavioral impairment result in data set [1] (in words) is listed as “improved neurobehavioral impairment”. In addition, the “activity of intracellular Nrf2 (luciferase)” value in the data set on Nrf2 (1 μM) was “significantly activate the activity of intracellular Nrf2”. Moreover, the “activity of intracellular Nrf2 (luciferase)” value in the data set on Nrf2 (10 μM) is listed as “significantly activate the activity of intracellular Nrf2”. Further, the “AMPK activity (p-AMPK content in cerebral cortex at the infarct side)” value with AMPK is “increase of AMPK activity”. Further, the “neurological function score compared with vehicle group” value in the data set with rats with tMCAO [2] (tMCAO (I/R) rats, administration at each time point) is listed as “significantly reduced ischemia-induced neurological function score”. The compound also displayed a Neurobehavioral score in the data set with rats with tMCAO [2] (tMCAO rats, 1 mg/kg, administrated after 4 h (time-window groups), scored 48 h after ischemia (0-4 points)) of 2.385. In addition, in the data set on rats with tMCAO [2] (tMCAO rats, 1 mg/kg, administrated after 6 h, scored 48 h after ischemia (0-4 points)), the Neurobehavioral score came out at 1.867. In the data set with rats with tMCAO [2] (tMCAO rats, 1 mg/kg, administrated after 24 h, scored 48 h after ischemia (0-4 points)), this compound returned a Neurobehavioral score of 1.182. Also, the “neurological function compared with NBP, Telm and NBP+Telm” value with rats with tMCAO [2] (tMCAO rats, 4 h post-ischemia) is on record as “more pronounced effect on improving the neurological function”. Further, in the data set with rats with tMCAO [2] (tMCAO rats, I3 1 mg/kg i.v. at 4 h after ischemia, with or without Compound C 20 mg/kg i.p. 30 min before, 48 h post-ischemia), the Neurobehavioral score turned out to be 1.182. In the data set with rats with tMCAO [2] (setting [6]), this compound registered a Neurobehavioral score of 1.182. In addition, the “LPS-induced TNF-α release in mouse primary microglia” value with TNF-α was “significantly inhibit LPS-induced TNF-α release”. Further, the Falling time in data set [3] (Before modeling (baseline)) came to 279.10. For the same compound, in [3] (Day 1 after pMCAO), the Falling time is 68.63. In addition, the Falling time in data set [3] (Day 2 after pMCAO) was 94.00. The compound also displayed a Falling time in data set [3] (Day 3 after pMCAO) of 125.13. Besides, in the data set on rats with tMCAO [4] (1 mg/kg administrated at 6 h after ischemia and once again after 24 h, determined 48 h post-ischemia), the “Infarction rate (%)” value is given as 13.07%. Also, the “Infarction rate (%)” value in the data set with rats with tMCAO [4] (1 mg/kg administrated once at 24 h after ischemia, determined 48 h post-ischemia) came to 20.72%. Also, the “infarct volume compared with NBP group, Telm group and NBP+Telm group” value in the data set with rats with tMCAO [4] (4 h post-ischemia) is reported as “more pronounced effect on reducing the infarct volume”. In addition, the “Infarction rate (%)” value in the data set on rats with tMCAO [4] (I3 1 mg/kg i.v. at 4 h after ischemia, with or without Compound C 20 mg/kg i.p. 30 min before, 48 h post-ischemia) was 6.655%. The “Infarction rate (%)” value in the data set with rats with tMCAO [4] (setting [7]) came to 6.655%. Also, the “infarct volume compared with vehicle group” value in the data set on rats with tMCAO [4] (administrating at each time point (4 h, 6 h, 24 h)) is given as “significantly reduced the infarct volume”. In addition, the “Infarction rate (%)” value in data set [5] is listed as 12.48%. Moreover, the infarct volume entry in [5] (in words) is “significantly reduced the infarct volume”.
